Results as given in PMC5218480 (PLoS ONE, 2017).

System: MV-4-11 cells
Assay: Gene expression microarray analysis (Affymetrix PrimeView) and GSEA
Type: cell-based, human
Set-up: RFU PODN (11730768_x_at) / Fold change /veh PODN (11730768_x_at) / RFU LINC00158 (11744669_a_at) / Fold change /veh LINC00158 (11744669_a_at) / RFU DUSP10 (11751237_a_at) / Fold change /veh DUSP10 (11751237_a_at) / RFU ID3 (11757404_x_at) / Fold change /veh ID3 (11757404_x_at) / RFU PLEKHG5 (11737974_s_at) / Fold change /veh PLEKHG5 (11737974_s_at) / RFU LRRC4B (11730491_at) / Fold change /veh LRRC4B (11730491_at) / RFU GIMAP4 (11747438_a_at) / Fold change /veh GIMAP4 (11747438_a_at) / RFU KRT8 (11758183_x_at) / Fold change /veh KRT8 (11758183_x_at) / RFU CNN1 (11734310_a_at) / Fold change /veh CNN1 (11734310_a_at) / RFU VPS37D (11726825_at) / Fold change /veh VPS37D (11726825_at) / RFU C10orf10 (11716522_x_at) / Fold change /veh C10orf10 (11716522_x_at) / RFU KIR2DL2 /// KIR2DL4 /// KIR2DL5A /// KIR2DL5B /// KIR2DS1 /// KIR2DS2 /// KIR2DS3 /// KIR2DS4 /// KIR3DL3 /// KIR3DL3 /// KIR3DS1 (11738374_at) / Fold change /veh KIR2DL2 /// KIR2DL4 /// KIR2DL5A /// KIR2DL5B /// KIR2DS1 /// KIR2DS2 /// KIR2DS3 /// KIR2DS4 /// KIR3DL3 /// KIR3DL3 /// KIR3DS1 (11738374_at) / RFU C1QL1 (11718748_at) / Fold change /veh C1QL1 (11718748_at) / RFU TMPRSS4 (11747572_a_at) / Fold change /veh TMPRSS4 (11747572_a_at) / RFU HAMP (11756126_x_at) / Fold change /veh HAMP (11756126_x_at) / RFU RNFT2 (11725882_a_at) / Fold change /veh RNFT2 (11725882_a_at) / RFU NR4A2 (11747474_a_at) / Fold change /veh NR4A2 (11747474_a_at) / RFU ABCC12 (11746883_a_at) / Fold change /veh ABCC12 (11746883_a_at) / RFU TMEM136 (11760407_x_at) / Fold change /veh TMEM136 (11760407_x_at) / RFU CLDN22 /// WWC2 (11732394_at) / Fold change /veh CLDN22 /// WWC2 (11732394_at) / RFU HLA-DPB1 (11760878_x_at) / Fold change /veh HLA-DPB1 (11760878_x_at) / RFU SPINT1 (11716480_a_at) / Fold change /veh SPINT1 (11716480_a_at) / RFU GAP43 (11754022_s_at) / Fold change /veh GAP43 (11754022_s_at) / RFU A4GNT (11735810_at) / Fold change /veh A4GNT (11735810_at) / RFU PRB3 (11715151_x_at) / Fold change /veh PRB3 (11715151_x_at) / RFU TUBB4B (11761932_at) / Fold change /veh TUBB4B (11761932_at) / RFU CAPN14 (11732068_a_at) / Fold change /veh CAPN14 (11732068_a_at) / RFU TMCC2 (11721928_a_at) / Fold change /veh TMCC2 (11721928_a_at) / RFU IRGQ (11745062_a_at) / Fold change /veh IRGQ (11745062_a_at) / RFU FAM174B (11720279_a_at) / Fold change /veh FAM174B (11720279_a_at) / RFU TMPRSS4 (11748680_a_at) / Fold change /veh TMPRSS4 (11748680_a_at) / RFU FAM212B (11763350_a_at) / Fold change /veh FAM212B (11763350_a_at) / RFU PLEKHG5 (11743358_a_at) / Fold change /veh PLEKHG5 (11743358_a_at) / RFU ZSCAN30 (11745921_a_at) / Fold change /veh ZSCAN30 (11745921_a_at) / RFU CMKLR1 (11741424_a_at) / Fold change /veh CMKLR1 (11741424_a_at) / RFU LOC101060620 /// MAPK8IP1 (11723275_at) / Fold change /veh LOC101060620 /// MAPK8IP1 (11723275_at) / RFU SPTSSB (11747773_x_at) / Fold change /veh SPTSSB (11747773_x_at) / RFU PRSS12 (11739890_at) / Fold change /veh PRSS12 (11739890_at) / RFU BIN1 (11741810_x_at) / Fold change /veh BIN1 (11741810_x_at) / RFU WNT11 (11732464_a_at) / Fold change /veh WNT11 (11732464_a_at) / RFU C10orf10 (11716521_a_at) / Fold change /veh C10orf10 (11716521_a_at) / RFU C5orf56 (11738089_at) / Fold change /veh C5orf56 (11738089_at) / RFU CYB561 (11721691_x_at) / Fold change /veh CYB561 (11721691_x_at) / RFU ANKRD19P (11752326_a_at) / Fold change /veh ANKRD19P (11752326_a_at) / RFU OR2T12 /// OR2T33 /// OR2T8 (11738714_s_at) / Fold change /veh OR2T12 /// OR2T33 /// OR2T8 (11738714_s_at) / RFU VCAN (11748164_a_at) / Fold change /veh VCAN (11748164_a_at) / RFU JSRP1 (11732532_at) / Fold change /veh JSRP1 (11732532_at) / RFU KRTAP10-11 (11738290_x_at) / Fold change /veh KRTAP10-11 (11738290_x_at) / RFU MYO3A (11730013_a_at) / Fold change /veh MYO3A (11730013_a_at) / RFU EBF3 (11725865_a_at) / Fold change /veh EBF3 (11725865_a_at) / RFU CAMK2N1 (11719241_x_at) / Fold change /veh CAMK2N1 (11719241_x_at) / RFU C5orf56 (11738088_a_at) / Fold change /veh C5orf56 (11738088_a_at) / RFU OLFML3 (11715873_a_at) / Fold change /veh OLFML3 (11715873_a_at) / RFU LOC100653217 /// NTM (11731650_a_at) / Fold change /veh LOC100653217 /// NTM (11731650_a_at) / RFU MAPK11 (11762145_a_at) / Fold change /veh MAPK11 (11762145_a_at) / RFU FIZ1 (11724087_x_at) / Fold change /veh FIZ1 (11724087_x_at) / RFU OASL (11726364_x_at) / Fold change /veh OASL (11726364_x_at) / RFU SOX15 (11748057_x_at) / Fold change /veh SOX15 (11748057_x_at) / RFU CD79A (11719716_a_at) / Fold change /veh CD79A (11719716_a_at) / RFU HIST1H1D (11736915_at) / Fold change /veh HIST1H1D (11736915_at) / RFU CASKIN2 (11723855_a_at) / Fold change /veh CASKIN2 (11723855_a_at) / RFU LOC730098 (11760151_x_at) / Fold change /veh LOC730098 (11760151_x_at) / RFU OR4N2 (11742367_at) / Fold change /veh OR4N2 (11742367_at) / RFU PRRT2 (11749266_a_at) / Fold change /veh PRRT2 (11749266_a_at) / RFU SNX32 (11753110_a_at) / Fold change /veh SNX32 (11753110_a_at) / RFU CDHR5 (11726645_a_at) / Fold change /veh CDHR5 (11726645_a_at) / RFU RCAN1 (11760418_a_at) / Fold change /veh RCAN1 (11760418_a_at) / RFU FAM167A (11723789_a_at) / Fold change /veh FAM167A (11723789_a_at) / RFU FAM26E (11764081_at) / Fold change /veh FAM26E (11764081_at) / RFU ISYNA1 (11749810_s_at) / Fold change /veh ISYNA1 (11749810_s_at) / RFU ACY1 (11761880_at) / Fold change /veh ACY1 (11761880_at) / RFU 11764098_at / Fold change /veh 11764098_at / RFU SAMD14 (11745864_x_at) / Fold change /veh SAMD14 (11745864_x_at) / RFU NPB (11741838_a_at) / Fold change /veh NPB (11741838_a_at) / RFU TMPRSS6 (11731388_a_at) / Fold change /veh TMPRSS6 (11731388_a_at) / RFU KRTAP10-2 (11738614_at) / Fold change /veh KRTAP10-2 (11738614_at) / RFU ARHGAP8 /// PRR5-ARHGAP8 (11727945_x_at) / Fold change /veh ARHGAP8 /// PRR5-ARHGAP8 (11727945_x_at) / RFU KRTAP5-7 /// NADSYN1 (11734609_at) / Fold change /veh KRTAP5-7 /// NADSYN1 (11734609_at) / RFU RASL12 (11751679_a_at) / Fold change /veh RASL12 (11751679_a_at) / RFU CDKN2B (11736163_a_at) / Fold change /veh CDKN2B (11736163_a_at) / RFU PRF1 (11729649_at) / Fold change /veh PRF1 (11729649_at) / RFU, ZNF638 /// ZNF638-IT1 / Fold change vs veh, ZNF638 /// ZNF638-IT1 / RFU, PANK3 / Fold change vs veh, PANK3 / RFU, SH3YL1 / Fold change vs veh, SH3YL1 / RFU, ZEB2 / Fold change vs veh, ZEB2 / RFU, NRIP1 / Fold change vs veh, NRIP1 / RFU, PTTG1IP / Fold change vs veh, PTTG1IP / RFU, CAPN2 / Fold change vs veh, CAPN2 / RFU, MED14 / Fold change vs veh, MED14 / RFU, SNORA58 / Fold change vs veh, SNORA58 / RFU, C1orf63 / Fold change vs veh, C1orf63 / RFU, LRRFIP1 / Fold change vs veh, LRRFIP1 / RFU, NDUFAF7 / Fold change vs veh, NDUFAF7 / RFU, SLC12A2 / Fold change vs veh, SLC12A2 / RFU, IBTK / Fold change vs veh, IBTK / RFU, ESF1 / Fold change vs veh, ESF1 / Fold change vs veh, TMEM50B / RFU, TAOK1 / Fold change vs veh, TAOK1 / RFU, ACBD3 / Fold change vs veh, ACBD3 / RFU, TMA16 / Fold change vs veh, TMA16 / RFU, RWDD3 / Fold change vs veh, RWDD3 / RFU, BCAT1 / Fold change vs veh, BCAT1 / RFU, EDEM3 / Fold change vs veh, EDEM3 / RFU, TMEM33 / Fold change vs veh, TMEM33 / RFU, WDR75 / Fold change vs veh, WDR75 / RFU, AHCTF1 / Fold change vs veh, AHCTF1 / RFU, TFRC / Fold change vs veh, TFRC / RFU, ZDHHC17 / Fold change vs veh, ZDHHC17 / RFU, NOM1 / Fold change vs veh, NOM1 / RFU, ARL8B / Fold change vs veh, ARL8B / RFU, ZBTB11 / Fold change vs veh, ZBTB11 / RFU, TAMM41 / Fold change vs veh, TAMM41 / RFU, KIAA1704 /// LOC100996395 / Fold change vs veh, KIAA1704 /// LOC100996395 / RFU, ING1 / Fold change vs veh, ING1 / RFU, TRMT61B / Fold change vs veh, TRMT61B / RFU, FUBP3 / Fold change vs veh, FUBP3 / RFU, TP53 / Fold change vs veh, TP53 / RFU, TNKS2 / Fold change vs veh, TNKS2 / RFU, ZFP14 / Fold change vs veh, ZFP14 / RFU, ACTR2 / Fold change vs veh, ACTR2 / RFU, PPP3R1 / Fold change vs veh, PPP3R1 / RFU, PIK3R1 / Fold change vs veh, PIK3R1 / RFU, HNRNPA1 / Fold change vs veh, HNRNPA1 / RFU, RNF170 / Fold change vs veh, RNF170 / RFU, ZNF28 / Fold change vs veh, ZNF28 / RFU, RNGTT / Fold change vs veh, RNGTT / RFU, OGT / Fold change vs veh, OGT / RFU, BRD1 / Fold change vs veh, BRD1 / RFU, MARS / Fold change vs veh, MARS / RFU, ZNF655 / Fold change vs veh, ZNF655 / RFU, FAHD1 / Fold change vs veh, FAHD1 / RFU, BDP1 / Fold change vs veh, BDP1 / RFU, LRRCC1 / Fold change vs veh, LRRCC1 / RFU, ARID1A / Fold change vs veh, ARID1A / RFU, ZNF146 / Fold change vs veh, ZNF146 / RFU, ZNF330 / Fold change vs veh, ZNF330 / RFU, GPN3 / Fold change vs veh, GPN3 / RFU, C9orf123 / Fold change vs veh, C9orf123 / RFU, N4BP2L2 / Fold change vs veh, N4BP2L2 / RFU, ARFIP1 / Fold change vs veh, ARFIP1 / RFU, FAM179B / Fold change vs veh, FAM179B / RFU, BCL10 / Fold change vs veh, BCL10 / RFU, UHRF1BP1L / Fold change vs veh, UHRF1BP1L / RFU, BET1 / Fold change vs veh, BET1 / RFU, CNOT2 / Fold change vs veh, CNOT2 / RFU, ZNF268 / Fold change vs veh, ZNF268 / Fold change vs veh, ZNF507 / RFU, DGCR2 / Fold change vs veh, DGCR2 / RFU, WDSUB1 / Fold change vs veh, WDSUB1 / Fold change vs veh, HSP90B1 /// MIR3652 / RFU, ADSS / Fold change vs veh, ADSS / RFU, GK / Fold change vs veh, GK / RFU, ZNF148 / Fold change vs veh, ZNF148 / RFU, TAF9 / Fold change vs veh, TAF9 / RFU, SLC1A5 / Fold change vs veh, SLC1A5 / RFU, SLMO2 / Fold change vs veh, SLMO2 / RFU, ABCC4 / Fold change vs veh, ABCC4 / RFU, LOC101060439 /// RAP1B / Fold change vs veh, LOC101060439 /// RAP1B / RFU, RFX7 / Fold change vs veh, RFX7 / RFU, GTPBP10 / Fold change vs veh, GTPBP10 / RFU, CNEP1R1 / Fold change vs veh, CNEP1R1 / RFU, BIVM-ERCC5 /// ERCC5 / Fold change vs veh, BIVM-ERCC5 /// ERCC5 / RFU, ILF3 / Fold change vs veh, ILF3 / RFU 11762660_at / Fold change /veh 11762660_at / RFU VCAN (11757783_s_at) / Fold change /veh VCAN (11757783_s_at) / RFU DDX43 (11728927_at) / Fold change /veh DDX43 (11728927_at) / RFU KRT8 (11758188_x_at) / Fold change /veh KRT8 (11758188_x_at) / RFU NKD1 (11759106_at) / Fold change /veh NKD1 (11759106_at) / RFU SRD5A1 (11742802_a_at) / Fold change /veh SRD5A1 (11742802_a_at) / RFU TPSAB1 /// TPSB2 (11721975_s_at) / Fold change /veh TPSAB1 /// TPSB2 (11721975_s_at) / RFU GSTM3 (11746129_a_at) / Fold change /veh GSTM3 (11746129_a_at) / RFU IL23R (11737362_x_at) / Fold change /veh IL23R (11737362_x_at) / RFU TMEM51 (11727254_a_at) / Fold change /veh TMEM51 (11727254_a_at) / RFU PIWIL2 (11732686_x_at) / Fold change /veh PIWIL2 (11732686_x_at) / RFU ORM1 (11744905_x_at) / Fold change /veh ORM1 (11744905_x_at) / RFU CCDC152 (11743942_at) / Fold change /veh CCDC152 (11743942_at) / RFU ECM1 (11717891_a_at) / Fold change /veh ECM1 (11717891_a_at) / RFU IL23R (11748794_a_at) / Fold change /veh IL23R (11748794_a_at) / RFU TNFAIP8L3 (11732012_x_at) / Fold change /veh TNFAIP8L3 (11732012_x_at) / RFU MBOAT4 (11741988_at) / Fold change /veh MBOAT4 (11741988_at) / RFU 11764193_at / Fold change /veh 11764193_at / RFU TMEM53 (11763286_at) / Fold change /veh TMEM53 (11763286_at) / RFU MAGEB2 (11727129_at) / Fold change /veh MAGEB2 (11727129_at) / RFU TMEM200A (11744735_a_at) / Fold change /veh TMEM200A (11744735_a_at) / RFU CCDC152 (11751479_a_at) / Fold change /veh CCDC152 (11751479_a_at) / RFU FAM211A (11726209_a_at) / Fold change /veh FAM211A (11726209_a_at) / RFU RGS16 (11746705_a_at) / Fold change /veh RGS16 (11746705_a_at) / RFU VCAN (11755009_s_at) / Fold change /veh VCAN (11755009_s_at) / RFU RHOB (11743442_s_at) / Fold change /veh RHOB (11743442_s_at) / RFU RGS16 (11720943_a_at) / Fold change /veh RGS16 (11720943_a_at) / RFU RGS16 (11720944_at) / Fold change /veh RGS16 (11720944_at) / RFU, VPS4B / Fold change vs veh, VPS4B / RFU, CREB1 / Fold change vs veh, CREB1 / RFU, DNAJC13 / Fold change vs veh, DNAJC13 / RFU, GNAQ / Fold change vs veh, GNAQ / RFU, CDK5R1 / Fold change vs veh, CDK5R1 / RFU, ZRANB3 / Fold change vs veh, ZRANB3 / RFU, CUL4A / Fold change vs veh, CUL4A / RFU, CCNY / Fold change vs veh, CCNY / RFU, UFL1 / Fold change vs veh, UFL1 / RFU, COG3 / Fold change vs veh, COG3 / RFU, DIAPH2 / Fold change vs veh, DIAPH2 / RFU, SKA2 / Fold change vs veh, SKA2 / RFU, AFF3 / Fold change vs veh, AFF3 / RFU, LMF1 / Fold change vs veh, LMF1 / RFU, IPO11 / Fold change vs veh, IPO11 / RFU, DFFB / Fold change vs veh, DFFB / RFU, FOXP1 / Fold change vs veh, FOXP1 / RFU, CARD8 / Fold change vs veh, CARD8 / RFU, STRN3 / Fold change vs veh, STRN3 / RFU, ADK / Fold change vs veh, ADK / RFU, RASSF2 / Fold change vs veh, RASSF2 / RFU, WIPF1 / Fold change vs veh, WIPF1 / RFU, LARP1B / Fold change vs veh, LARP1B / RFU, RASA1 / Fold change vs veh, RASA1 / RFU, RB1 / Fold change vs veh, RB1 / RFU, PPFIA1 / Fold change vs veh, PPFIA1 / RFU, MAT2A / Fold change vs veh, MAT2A / RFU, CCT5 / Fold change vs veh, CCT5 / RFU, WDR92 / Fold change vs veh, WDR92 / RFU, CUX1 / Fold change vs veh, CUX1 / RFU, TTC7A / Fold change vs veh, TTC7A / RFU, TMEM135 / Fold change vs veh, TMEM135 / RFU, DEPTOR / Fold change vs veh, DEPTOR / RFU, CPM / Fold change vs veh, CPM / RFU, DNAJB6 / Fold change vs veh, DNAJB6 / RFU, CACNA2D3 / Fold change vs veh, CACNA2D3 / RFU, DTX4 / Fold change vs veh, DTX4 / RFU, TFCP2 / Fold change vs veh, TFCP2 / RFU, GMCL1 /// GMCL1P1 / Fold change vs veh, GMCL1 /// GMCL1P1 / RFU, AEBP2 / Fold change vs veh, AEBP2 / RFU, SNHG1 /// SNORD22 /// SNORD25 /// SNORD26 /// SNORD27 /// SNORD28 /// SNORD29 /// SNORD31 / Fold change vs veh, SNHG1 /// SNORD22 /// SNORD25 /// SNORD26 /// SNORD27 /// SNORD28 /// SNORD29 /// SNORD31 / Fold change (Aza/veh), C12orf56 (ProbeSet 11735607_a_at) / Fold change (ACY-1035/veh), C12orf56 (ProbeSet 11735607_a_at) / Fold change (Aza/veh), FGFR1OP (ProbeSet 11751329_s_at) / Fold change (ACY-1035/veh), FGFR1OP (ProbeSet 11751329_s_at) / Fold change (Aza/veh), VPS36 (ProbeSet 11739960_a_at) / Fold change (ACY-1035/veh), VPS36 (ProbeSet 11739960_a_at) / RFU SYPL1 (11715823_x_at) / Fold change /veh SYPL1 (11715823_x_at) / RFU IGFBP7 (11715501_s_at) / Fold change /veh IGFBP7 (11715501_s_at) / RFU REEP3 (11722064_at) / Fold change /veh REEP3 (11722064_at) / RFU IGLL1 (11728026_x_at) / Fold change /veh IGLL1 (11728026_x_at): dose or concentration left out as unconfirmed
Settings: ProbeSet 11764057_s_at; LIST B

## Nc1ccc(-c2cccs2)cc1NC(=O)c1ccc2c(c1)cc(C1CC1)n2CCN1CCOCC1 [ACY-1035]
  Fold change vs veh, C1orf63: 0.95
